# Measured values: ChEMBL document CHEMBL1201862, “PubChem BioAssay data set” (2004)
# Calls of active or inactive are those of the source.
# Legend:
# [1] = Luminescence Cell-Based Dose Retest to Confirm Inhibitors of Cancer Stem Cells. [Related pubchem assays (depositor defined):AID2717, AID2721]; format: functional; conditions: Homo sapiens
# [2] = non-specific 3'UTR reporter inhibition in Clone20-Shn3RL – cell-based, Renilla luciferase, cherry-picked, counter-screen for Shn3 inhibitor project, dose response (AID 624133); format: functional
# [3] = loss of viability in HepG2 cells – cell-based, CellTiter-Glo, cherry-picked, cytotoxicity control for Shn3 inhibitor project, dose response (AID 624134); format: functional
# [4] = biological target: E3 ubiquitin-protein ligase Mdm2 (Homo sapiens, UniProt Q00987); experiment: MDM2-luc reporter signal enhancers, multi-concentration potency testing, MDM2 ubiquitin-protein ligase inhibitor program, whole-cell format, luminescence detection, 384-well microplate (AID 1394); format: functional;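 further: MDM2 E3 inhibitors raise luminescence so EC50 is for signal enhancement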
# [5] = viability loss of HMLE_sh_eGFP cells – cell-based, luminescence, counter-screen for HMLE_sh_ECad selective toxicity project, dose response (AID 463074); format: functional, Homo sapiens;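 further: HMLE human mammary epithelial cells expressing control shRNA against eGFP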
# [6] = Late-stage probe development counterscreen for inhibitors of the Hepatitis C Virus non-structural protein 3 helicase (NS3): luminescence-based cell-based dose response assay to determine whether compounds that inhibit replication of HCV RNA replicon are cytotoxic. [Related pubchem assays (depositor defined):AID1800, AID1830, AID1845, AID1943, AID1945, AID2172, AID2173, AID2474, AID2476]; format: functional
# [7] = biological target: T1, Apoptotic protease-activating factor 1 (Homo sapiens, UniProt O14727); format: functional
# T1 sequence (O14727 whole entry): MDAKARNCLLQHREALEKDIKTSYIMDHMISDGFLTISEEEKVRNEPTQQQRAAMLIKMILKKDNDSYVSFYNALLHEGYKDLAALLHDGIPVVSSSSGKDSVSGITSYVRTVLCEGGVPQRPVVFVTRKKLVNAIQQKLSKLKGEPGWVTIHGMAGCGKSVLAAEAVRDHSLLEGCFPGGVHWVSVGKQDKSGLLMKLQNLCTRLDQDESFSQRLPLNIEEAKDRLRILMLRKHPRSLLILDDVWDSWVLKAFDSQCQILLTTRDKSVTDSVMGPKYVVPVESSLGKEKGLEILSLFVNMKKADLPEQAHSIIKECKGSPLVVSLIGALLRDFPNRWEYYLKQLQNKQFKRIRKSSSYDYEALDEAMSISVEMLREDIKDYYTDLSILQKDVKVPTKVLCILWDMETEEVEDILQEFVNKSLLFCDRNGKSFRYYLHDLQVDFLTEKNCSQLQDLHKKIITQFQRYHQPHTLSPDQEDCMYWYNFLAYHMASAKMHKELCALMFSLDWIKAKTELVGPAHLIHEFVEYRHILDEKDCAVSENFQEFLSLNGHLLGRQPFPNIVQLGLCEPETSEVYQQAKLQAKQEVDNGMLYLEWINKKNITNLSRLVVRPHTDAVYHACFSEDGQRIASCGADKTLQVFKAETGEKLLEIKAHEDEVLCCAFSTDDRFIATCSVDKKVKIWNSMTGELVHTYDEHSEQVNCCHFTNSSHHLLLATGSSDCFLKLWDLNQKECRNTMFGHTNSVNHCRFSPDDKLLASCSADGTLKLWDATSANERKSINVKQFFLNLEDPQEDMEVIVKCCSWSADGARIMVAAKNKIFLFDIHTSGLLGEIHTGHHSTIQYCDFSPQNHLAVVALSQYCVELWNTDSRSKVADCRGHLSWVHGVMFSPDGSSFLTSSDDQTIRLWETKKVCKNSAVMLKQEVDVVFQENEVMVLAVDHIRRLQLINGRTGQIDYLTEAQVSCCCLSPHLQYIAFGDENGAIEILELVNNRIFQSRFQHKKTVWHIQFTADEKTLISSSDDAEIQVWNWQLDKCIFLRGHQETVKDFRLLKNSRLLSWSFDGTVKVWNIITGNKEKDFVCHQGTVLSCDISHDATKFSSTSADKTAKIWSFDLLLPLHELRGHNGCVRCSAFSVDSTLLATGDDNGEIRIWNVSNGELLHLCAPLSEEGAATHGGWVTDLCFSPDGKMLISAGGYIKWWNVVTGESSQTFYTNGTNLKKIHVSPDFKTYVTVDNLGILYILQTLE
# HEK293 [8] = experiment: inhibition of NOD1-driven NF-kB reporter – cell-based, luminescence, uHTS, primary screen (AID 1578); format: functional; conditions: Homo sapiens
# HEK293 [9] = experiment: NOD2 signaling inhibitors in MDP-stimulated cells, cell-based, uHTS, luminescence (AID 2001); format: functional; conditions: Homo sapiens
# HEK293 [10] = experiment: cells; format: functional, cell-based; conditions: Homo sapiens
# [11] = biological target: Nucleotide-binding oligomerization domain-containing protein 2 (Homo sapiens, UniProt Q9HC29); experiment: inhibition of NOD2-driven NF-kB reporter – cell-based, luminescence, uHTS, HEK293 (AID 1566); format: functional
# Sequence of Nucleotide-binding oligomerization domain-containing protein 2 (Q9HC29 whole entry, the tested form may be a part): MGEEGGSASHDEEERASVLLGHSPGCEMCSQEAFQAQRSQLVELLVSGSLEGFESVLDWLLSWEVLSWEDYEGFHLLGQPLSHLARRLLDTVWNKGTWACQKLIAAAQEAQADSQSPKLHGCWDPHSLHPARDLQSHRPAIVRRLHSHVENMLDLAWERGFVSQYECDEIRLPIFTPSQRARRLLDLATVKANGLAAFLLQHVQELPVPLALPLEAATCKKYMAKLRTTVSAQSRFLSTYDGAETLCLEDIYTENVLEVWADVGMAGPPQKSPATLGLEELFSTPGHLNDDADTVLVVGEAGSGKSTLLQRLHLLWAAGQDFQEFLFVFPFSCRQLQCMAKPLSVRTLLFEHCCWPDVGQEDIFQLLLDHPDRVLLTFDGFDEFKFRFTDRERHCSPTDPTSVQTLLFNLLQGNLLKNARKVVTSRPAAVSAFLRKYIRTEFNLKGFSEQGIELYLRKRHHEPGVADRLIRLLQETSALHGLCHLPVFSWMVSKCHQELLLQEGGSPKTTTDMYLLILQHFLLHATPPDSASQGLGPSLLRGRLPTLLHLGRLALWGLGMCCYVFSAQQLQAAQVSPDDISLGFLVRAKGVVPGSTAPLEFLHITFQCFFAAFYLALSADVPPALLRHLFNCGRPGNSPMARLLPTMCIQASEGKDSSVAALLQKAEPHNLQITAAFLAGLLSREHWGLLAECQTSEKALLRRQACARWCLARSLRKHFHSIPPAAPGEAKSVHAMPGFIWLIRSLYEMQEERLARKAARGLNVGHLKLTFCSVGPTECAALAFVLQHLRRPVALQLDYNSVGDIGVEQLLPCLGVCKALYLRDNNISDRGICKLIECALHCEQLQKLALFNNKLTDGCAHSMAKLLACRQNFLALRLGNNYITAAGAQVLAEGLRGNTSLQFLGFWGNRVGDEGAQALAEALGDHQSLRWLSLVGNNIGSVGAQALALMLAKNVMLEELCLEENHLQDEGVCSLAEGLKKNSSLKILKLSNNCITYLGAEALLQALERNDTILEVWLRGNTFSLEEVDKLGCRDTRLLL
# HEK293 [12] = experiment: cells; format: functional, cell-based; conditions: Homo sapiens; remark: listed apart in the source
# [13] = biological target: T2, Voltage-gated N-type calcium channel alpha-1B subunit/Amyloid beta A4 precursor protein-binding family A member 1 (Homo sapiens, UniProt Q00975+Q02410); format: protein assay
# T2 sequence (Q00975 whole entry): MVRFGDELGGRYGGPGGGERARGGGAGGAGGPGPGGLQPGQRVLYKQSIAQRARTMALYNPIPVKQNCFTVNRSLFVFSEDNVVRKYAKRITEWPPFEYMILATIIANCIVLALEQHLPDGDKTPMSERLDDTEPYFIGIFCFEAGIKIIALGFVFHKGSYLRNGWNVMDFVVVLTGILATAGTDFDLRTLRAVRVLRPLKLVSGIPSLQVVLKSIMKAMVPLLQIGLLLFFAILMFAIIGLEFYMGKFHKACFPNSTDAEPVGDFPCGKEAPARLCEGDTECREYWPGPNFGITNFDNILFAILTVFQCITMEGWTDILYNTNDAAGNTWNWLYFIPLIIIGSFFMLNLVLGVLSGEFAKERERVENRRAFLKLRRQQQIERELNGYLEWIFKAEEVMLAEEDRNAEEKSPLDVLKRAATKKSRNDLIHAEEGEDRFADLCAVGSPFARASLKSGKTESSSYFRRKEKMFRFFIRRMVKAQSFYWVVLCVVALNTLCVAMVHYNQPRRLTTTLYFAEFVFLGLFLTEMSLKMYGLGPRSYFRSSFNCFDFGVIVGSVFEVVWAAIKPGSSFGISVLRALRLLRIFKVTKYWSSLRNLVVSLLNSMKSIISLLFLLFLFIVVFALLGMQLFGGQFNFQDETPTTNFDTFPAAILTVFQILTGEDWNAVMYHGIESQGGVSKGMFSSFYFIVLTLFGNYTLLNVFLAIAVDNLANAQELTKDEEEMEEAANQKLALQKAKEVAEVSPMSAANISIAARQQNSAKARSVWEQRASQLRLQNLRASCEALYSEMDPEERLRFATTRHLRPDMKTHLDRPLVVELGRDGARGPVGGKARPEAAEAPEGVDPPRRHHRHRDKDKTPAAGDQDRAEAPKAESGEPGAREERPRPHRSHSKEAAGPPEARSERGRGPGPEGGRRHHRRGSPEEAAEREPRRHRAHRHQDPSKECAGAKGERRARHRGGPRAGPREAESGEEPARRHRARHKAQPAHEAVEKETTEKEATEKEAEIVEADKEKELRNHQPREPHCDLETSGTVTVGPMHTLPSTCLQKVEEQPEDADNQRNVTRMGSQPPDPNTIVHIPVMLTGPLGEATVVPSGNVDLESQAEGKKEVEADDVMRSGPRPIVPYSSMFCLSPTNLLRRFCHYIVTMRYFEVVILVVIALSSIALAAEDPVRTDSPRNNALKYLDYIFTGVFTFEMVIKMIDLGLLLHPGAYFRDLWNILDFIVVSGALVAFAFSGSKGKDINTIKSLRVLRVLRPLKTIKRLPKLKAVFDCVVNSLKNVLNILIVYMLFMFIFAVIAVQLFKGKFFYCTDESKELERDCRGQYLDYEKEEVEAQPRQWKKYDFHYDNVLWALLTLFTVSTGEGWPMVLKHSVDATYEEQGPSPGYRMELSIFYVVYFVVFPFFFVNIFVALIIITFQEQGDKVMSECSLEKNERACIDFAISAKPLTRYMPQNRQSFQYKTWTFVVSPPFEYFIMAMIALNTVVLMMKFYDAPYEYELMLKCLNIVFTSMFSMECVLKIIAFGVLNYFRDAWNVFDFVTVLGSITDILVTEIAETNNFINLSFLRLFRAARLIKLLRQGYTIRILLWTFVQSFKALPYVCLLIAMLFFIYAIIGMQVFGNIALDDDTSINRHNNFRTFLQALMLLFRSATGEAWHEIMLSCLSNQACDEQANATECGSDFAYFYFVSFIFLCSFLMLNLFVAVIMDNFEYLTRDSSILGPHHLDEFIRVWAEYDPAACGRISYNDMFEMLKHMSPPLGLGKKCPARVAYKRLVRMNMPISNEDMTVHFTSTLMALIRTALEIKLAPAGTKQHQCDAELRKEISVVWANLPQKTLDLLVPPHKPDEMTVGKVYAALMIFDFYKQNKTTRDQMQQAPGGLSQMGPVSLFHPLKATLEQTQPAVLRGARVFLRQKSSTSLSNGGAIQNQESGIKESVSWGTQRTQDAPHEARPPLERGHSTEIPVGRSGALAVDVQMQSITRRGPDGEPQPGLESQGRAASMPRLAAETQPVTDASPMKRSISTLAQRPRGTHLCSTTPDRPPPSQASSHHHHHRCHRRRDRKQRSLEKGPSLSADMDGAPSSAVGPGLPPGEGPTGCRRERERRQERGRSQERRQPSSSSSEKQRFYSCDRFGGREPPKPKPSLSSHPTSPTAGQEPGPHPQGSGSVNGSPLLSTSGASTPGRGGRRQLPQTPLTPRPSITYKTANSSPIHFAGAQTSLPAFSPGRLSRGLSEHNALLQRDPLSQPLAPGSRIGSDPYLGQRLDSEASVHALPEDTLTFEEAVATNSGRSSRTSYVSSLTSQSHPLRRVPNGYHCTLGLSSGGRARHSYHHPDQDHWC
# T2 sequence (Q02410 whole entry): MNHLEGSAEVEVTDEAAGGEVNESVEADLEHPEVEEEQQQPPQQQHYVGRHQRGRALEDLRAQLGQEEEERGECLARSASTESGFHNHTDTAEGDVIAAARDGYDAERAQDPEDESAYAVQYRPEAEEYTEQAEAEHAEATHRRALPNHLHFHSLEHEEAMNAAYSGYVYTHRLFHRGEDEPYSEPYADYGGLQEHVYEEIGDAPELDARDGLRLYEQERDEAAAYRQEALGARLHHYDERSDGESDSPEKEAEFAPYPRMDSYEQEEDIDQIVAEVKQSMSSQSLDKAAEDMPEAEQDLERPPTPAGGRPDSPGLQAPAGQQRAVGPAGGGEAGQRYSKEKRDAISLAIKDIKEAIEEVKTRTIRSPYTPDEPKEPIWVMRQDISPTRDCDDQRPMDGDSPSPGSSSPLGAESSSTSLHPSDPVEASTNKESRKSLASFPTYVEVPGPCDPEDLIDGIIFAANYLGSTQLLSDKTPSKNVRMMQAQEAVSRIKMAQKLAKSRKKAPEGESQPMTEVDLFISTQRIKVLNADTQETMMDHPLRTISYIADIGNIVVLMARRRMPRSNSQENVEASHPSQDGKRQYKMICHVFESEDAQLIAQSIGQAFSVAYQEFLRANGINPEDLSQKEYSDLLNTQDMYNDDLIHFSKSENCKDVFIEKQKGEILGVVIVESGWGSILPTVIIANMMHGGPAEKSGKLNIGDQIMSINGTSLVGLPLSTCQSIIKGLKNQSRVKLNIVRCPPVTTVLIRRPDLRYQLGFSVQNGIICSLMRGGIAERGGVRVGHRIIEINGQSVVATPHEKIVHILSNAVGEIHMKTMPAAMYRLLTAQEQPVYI
# HEK293 [14] = experiment: cells; format: functional, cell-based; conditions: Homo sapiens; remark: listed apart in the source
# [15] = biological target: T2, Voltage-gated N-type calcium channel alpha-1B subunit/Amyloid beta A4 precursor protein-binding family A member 1; format: protein assay; remark: listed apart in the source
# Cytochrome P450 2C19 = Cytochrome P450 2C19 (Homo sapiens, UniProt P33261); experiment: Cytochrome panel assay with activity outcomes. Panel member name: p450-cyp2c19 Compounds with AC50 equal or less than 10 uM are considered active; format: functional
# Sequence of Cytochrome P450 2C19 (P33261 whole entry): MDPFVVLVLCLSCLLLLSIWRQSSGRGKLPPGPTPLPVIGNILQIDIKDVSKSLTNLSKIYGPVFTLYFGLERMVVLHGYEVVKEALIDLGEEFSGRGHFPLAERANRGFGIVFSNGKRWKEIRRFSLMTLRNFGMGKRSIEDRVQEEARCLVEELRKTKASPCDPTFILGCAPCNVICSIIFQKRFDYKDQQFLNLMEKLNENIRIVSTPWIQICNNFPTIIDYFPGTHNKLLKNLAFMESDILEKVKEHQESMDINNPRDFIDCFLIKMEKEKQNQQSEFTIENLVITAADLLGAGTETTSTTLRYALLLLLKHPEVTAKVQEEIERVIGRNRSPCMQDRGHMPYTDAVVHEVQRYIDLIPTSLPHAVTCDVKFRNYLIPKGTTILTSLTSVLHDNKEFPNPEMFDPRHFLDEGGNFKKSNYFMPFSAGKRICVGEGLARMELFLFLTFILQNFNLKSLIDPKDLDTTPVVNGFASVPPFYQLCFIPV
# Cytochrome P450 1A2 = biological target: T3, Cytochrome P450 1A2 (Homo sapiens, UniProt P05177);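 further: PubChem cytochrome P450 panel assay, CYP1A2 panel member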
# T3 sequence (P05177 whole entry): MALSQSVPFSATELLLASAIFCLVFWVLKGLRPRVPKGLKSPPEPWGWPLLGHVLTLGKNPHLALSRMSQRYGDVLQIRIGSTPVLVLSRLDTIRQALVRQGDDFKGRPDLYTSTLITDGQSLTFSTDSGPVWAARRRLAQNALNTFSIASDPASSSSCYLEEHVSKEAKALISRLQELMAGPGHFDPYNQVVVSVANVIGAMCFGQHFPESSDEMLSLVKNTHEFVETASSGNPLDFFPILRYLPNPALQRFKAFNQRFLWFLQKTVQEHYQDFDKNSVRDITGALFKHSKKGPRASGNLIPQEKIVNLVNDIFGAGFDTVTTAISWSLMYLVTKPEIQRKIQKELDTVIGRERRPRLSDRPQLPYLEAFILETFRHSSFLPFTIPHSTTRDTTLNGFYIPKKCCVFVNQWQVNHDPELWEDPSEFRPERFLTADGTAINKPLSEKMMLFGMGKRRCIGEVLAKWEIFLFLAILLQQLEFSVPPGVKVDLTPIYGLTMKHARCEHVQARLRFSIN
# [16] = restored growth of temperature-sensitive Burl-1 yeast – whole organism, S. cerevisiae, Burl-1 ts mutant, luminescence, counter-screen for SUMOylation pathway inhibitor project, dose response (AID 463199); format: functional
compound,measurement,setting,value
O=C1N/C(=C/c2ccc(N3CCOCC3)o2)C(=O)N1c1ccccc1,AC50,[1],> 195 µM (inactive)
same,AC50,[2],5.03 µM (active)
same,AC50,[3],> 70 µM (inactive)
same,EC50,[4],6.73 µM (not active)
same,AC50,[5],45.7 µM (active)
COc1ccc(C=NNC(=O)c2cc(O)c(O)c(O)c2)cc1COc1ccc(C(=O)OCC(C)C)cc1,CC50,[6],> 100 µM (inactive)
CCCCCCc1cc2cc(-c3nnc(-c4ccccc4OC)o3)c(=O)oc2cc1O,IC50,[7],15.9 µM (active)
same,EC50,HEK293 [8],6.54 µM (active)
same,IC50,HEK293 [9],8.48 µM (active)
same,IC50,HEK293 [10],> 20 µM (inactive)
same,EC50,[11],> 20 µM (inactive)
same,IC50,HEK293 [12],9.41 µM (active)
same,IC50,[13],> 56.8 µM (not active)
same,IC50,HEK293 [14],> 20 µM (inactive)
same,IC50,[15],> 50 µM (inactive)
Oc1nncc(-c2ccccc2)n1,AC50,Cytochrome P450 2C19,inconclusive
same,AC50,Cytochrome P450 1A2,14.1 µM (inconclusive)
same,AC50,[16],58.5 µM (active)
